Measurements reported in PMC4180818 (Metabolic brain disease, 2013).

Target: human glutamine synthetase (Homo sapiens, UniProt P15104)
Assay: coupled pyruvate kinase/lactate dehydrogenase NADH assay
Assay type: biochemical

Chain of human glutamine synthetase (P15104 2-373): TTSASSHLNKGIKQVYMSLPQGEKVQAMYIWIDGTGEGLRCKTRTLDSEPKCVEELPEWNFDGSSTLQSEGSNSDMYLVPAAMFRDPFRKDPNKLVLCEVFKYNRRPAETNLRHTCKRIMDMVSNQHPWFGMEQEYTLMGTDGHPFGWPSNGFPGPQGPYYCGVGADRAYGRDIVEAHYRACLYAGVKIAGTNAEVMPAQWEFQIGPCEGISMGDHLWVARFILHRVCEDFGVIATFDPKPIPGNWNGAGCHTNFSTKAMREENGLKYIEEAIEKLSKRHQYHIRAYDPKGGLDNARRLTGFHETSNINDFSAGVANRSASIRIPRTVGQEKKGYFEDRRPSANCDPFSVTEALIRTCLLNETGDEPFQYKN

CS(=N)(=O)CCC(N)C(=O)O (mixture of isomers) [MSO, L-methionine-S,R-sulfoximine]
Ki: 1.19 mM
